Data set [1] relates to human precision cut lung slices from donors with pulmonary fibrosis. As to the kind of experiment: Fibrotic marker mRNA (qPCR) in cryopreserved PCLS from donors with pulmonary fibrosis. The format is cell-based. As to conditions: PIPE-791, 6 days, 6 donors.
Data set [2] has the same test system. The description is as above. The format is cell-based. As to conditions: PIPE-791, 6 days, 6 donors. From the text:
Slices were snap frozen and processed for transcript analysis by quantitative PCR. […] Concurrently, we evaluated two well-established, clinical stage antifibrotic mechanisms in this setting: an αvβ1/6 inhibitor (bexotegrast, PLN-74809) and a PDE4B inhibitor (nerandomilast, BI 1015550).
Precision cut lung slices were obtained from Anabios (San Diego, CA) and collected in accordance with their ethics policy (https://anabios.com/ethics-statement/). Donor demographics are available in Additional File 1. Slices were thawed as per vendor instructions. Briefly, PCLS were thawed at 37 °C then transferred to media consisting of DMEM/F12, Antibiotic-Antimytotic, and Penicillin-Streptomycin. PCLS were gently rinsed then transferred to a larger dish. A small tissue sample was excised with a scalpel for immunohistochemistry and qPCR characterization. […] Final concentration of DMSO was 0.1%. Media and compound were replaced every two days for a total of 6 days. At the end of the experiment, slices were collected and snap frozen. Quantitative PCR: RNA was extracted using RNEasy columns. RNA was reverse transcribed using qScript XLT per manufacturer’s instructions. Genes of interest were assessed by qPCR using Perfecta SYBR Green on a StepOne Plus Thermocycler (ABI). Parameters were as follows: 95 °C 30 s, then 45 cycles of 95 °C for 5 s and 60 °C for 30 s.
This is another data set of the same source.

A further data set concerns the target T1, human LPAR2 (Homo sapiens, UniProt Q9HBW0).
T1 construct: host or cells: HEK293T
The experiment in a line: LPA-induced calcium mobilization in transiently transfected HEK293T cells. In kind it is cell-based. As to conditions: 3 h preincubation; LPA at EC80 5 µM. As to the method: (§1) We had previously assessed selectivity against LPAR2 and 3 [11]. […] Human LPAR1-6 plasmids were each transiently transfected into HEK293T cells and the EC80 (effective concentration producing 80% maximal effect) for LPA activation empirically determined. Selectivity was then tested in a concentration response paradigm using a 3 h preincubation followed by LPA-induced calcium mobilization.
(§2) Plasmids containing human LPAR1-6 were obtained from Origene (Rockville, MD) and maxiprepped at Eton Biosciences (San Diego, CA). Transfection mix was prepared by adding Fugene 6 transfection mix to serum free media and 0.1 µg plasmid. After a 20 m incubation, HEK293T cells (ATCC, Manassas VA) were lifted with Accutase and added to the Fugene mix at a final concentration of 0.5 × 10^4 cells/well. Cells were then plated on black clear bottom 96-well plates and incubated overnight in a 37 °C, 5% CO2 incubator. […] During the last hour of incubation, media was removed and replaced with Fluo-4 NW calcium assay dye prepared as per manufacturer’s recommendations in assay buffer. Agonist plates containing LPA were prepared for individual receptor subytpes using their respective EC80. Calcium mobilization was measured as per manufacturer’s directions on a Flexstation 3 (Molecular Devices, San Jose, CA).
(Calcium assays in cells follow changes in intracellular calcium, usually with a dye or a luminescent sensor.)

Another data set has as its target T2, human LPAR6 (Homo sapiens, UniProt P43657).
T2 construct: host or cells: HEK293T
T2 sequence (P43657 1-344): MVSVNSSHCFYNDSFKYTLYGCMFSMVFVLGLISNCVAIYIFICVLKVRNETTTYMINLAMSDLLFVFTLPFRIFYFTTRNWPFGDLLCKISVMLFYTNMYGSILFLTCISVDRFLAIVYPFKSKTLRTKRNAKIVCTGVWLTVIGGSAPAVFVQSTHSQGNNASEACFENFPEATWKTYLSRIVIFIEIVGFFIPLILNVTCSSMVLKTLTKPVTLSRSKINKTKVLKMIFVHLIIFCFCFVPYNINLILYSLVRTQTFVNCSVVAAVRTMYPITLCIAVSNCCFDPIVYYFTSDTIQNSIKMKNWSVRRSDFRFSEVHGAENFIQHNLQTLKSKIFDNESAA
The data set is described as above. The format is cell-based. As to conditions: 3 h preincubation; LPA at EC80 13 µM. The protocol: as §1, §2

Data set [3] is described as follows: Rat plasma pharmacokinetics after oral dose. The format is in vivo. As to conditions: 10 mg/kg oral, n=2. As to the method: This distinct, long-lived pharmacokinetic profile would support a dosing frequency less than that of other LPAR1 antagonists described in the literature.
Plasma and lung homogenate samples were thawed and further diluted as necessary with naïve mouse plasma or naïve lung homogenate matrix. […] Plasma drug concentrations were calculated by comparison of peak area ratios of analyte/IS to the prepared calibration standards using Sciex Analyst software.

Data set [4] concerns primary human lung fibroblasts. As to the kind of experiment: LPA-induced chemotaxis assay. In kind it is cell-based. As to conditions: 1 µM LPA chemoattractant; 6 h preincubation; read-out: IC50 inhibition of fibroblast chemotaxis. The protocol: Chemotaxis assay: Primary human lung fibroblasts were obtained from ATCC (Cat # PCS-201-020) and cultured in fibroblast media as per ATCC directions. Fibroblasts were serum starved overnight in basal fibroblast media. Cells were then lifted using CellStripper, centrifuged at 500 x g for 10 min, then resuspended in basal media. […] The receiving chamber contained 1 µM LPA. Chemotaxis was quantified as per Cell Biolabs, Inc instructions on a Flexstation 3 (Molecular Devices).

The test system of data set [5] is sandwich-cultured human hepatocytes. As to the kind of experiment: Cholestatic drug-induced liver injury (c-DILI) assay. The format is cell-based. As to conditions: 30 µM, 24 h, in the presence or absence of a toxic concentration of bile acids. As to the method:
This study was conducted at BioIVT (Durham, […]). Sandwich-cultured human hepatocytes (SCHH) were prepared on BioCoat 96-well Cell Culture Plate from Corning (Cat # 354407) using Transporter Certified™ cryopreserved hepatocytes from BioIVT (Cat # M00995-TCERT) and maintained in freshly prepared QualGro™ Hepatocyte Culture Medium. […] Following 24 h of exposure, the culture plates were harvested for adenosine triphosphate (ATP) and lactate dehydrogenase (LDH) analysis. Cellular ATP content was determined using the CellTiter-Glo® Assay Kit and LDH leakage into the culture media was determined using the CytoTox-ONE® Assay Kit, both obtained from Promega, per manufacturer’s instructions.

Data set [6] can be described thus: Plasma protein binding (fraction unbound). The format is in vitro ADME. As to conditions: rat plasma.
Data set [7] deals with primary human lung fibroblasts. As to the kind of experiment: LPA-induced COL1A1 expression (immunocytochemistry). The format is cell-based. As to conditions: 1 µM LPA 8 h; compound overnight; read-out: IC50 inhibition of COL1A1 expression. The protocol: COL1A1 assay: Primary human lung fibroblasts were plated in a 96-well plate and allowed to adhere. […] The next day, cells were treated with 1 µM LPA and incubated for 8 h. After incubation in LPA, cells were immunostained for COL1A1. Cells were fixed in formalin for 10 min, washed 3 x with PBS, incubated in collagen 1A1 antibody (1:250 in blocking buffer, 0.1% Triton X-100 in PBS, 2 h), and washed 3 x with PBS. Secondary antibody solution (1:500) and Hoechst (1:2000) were added for 1 h, washed 3 x in PBS then imaged on a Nikon A1R confocal microscope at 10x magnification except human lung fibroblasts which were imaged at 4x. Collagen area was quantified with ImageJ and normalized to Hoechst per image.

T1 sequence (Q9HBW0 whole entry): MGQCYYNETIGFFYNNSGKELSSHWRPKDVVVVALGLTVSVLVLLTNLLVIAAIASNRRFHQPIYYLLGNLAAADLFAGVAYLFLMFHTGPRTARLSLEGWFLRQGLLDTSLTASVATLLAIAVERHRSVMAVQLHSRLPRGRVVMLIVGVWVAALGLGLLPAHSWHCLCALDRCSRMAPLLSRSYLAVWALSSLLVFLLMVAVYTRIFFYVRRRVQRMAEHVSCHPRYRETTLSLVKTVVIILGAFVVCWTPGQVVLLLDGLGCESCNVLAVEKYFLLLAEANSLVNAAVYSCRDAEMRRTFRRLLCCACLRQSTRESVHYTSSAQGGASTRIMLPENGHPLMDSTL

As for `COc1ccc(NC(=O)N(c2ccccc2C(C)C)C2CCC(C(=O)O)CC2)c(OC(F)F)n1` (centres unmarked) [PIPE-791], the “slice health as measured by LDH in the media” value in [1] is listed as “no significant effect on slice health”. Moreover, in [2], the “COL1A1 mRNA expression vs vehicle” value is listed as “significantly less expression”, the “COL3A1 mRNA expression vs vehicle” value was “significantly less expression”, the “LPAR1 mRNA levels vs vehicle” value is recorded as “not significantly affected” and the “SERPINE1 mRNA expression vs vehicle” value is reported as “significantly less expression”. For the same compound, the “TIMP1 mRNA expression vs vehicle” value in [2] is recorded as “significantly less expression”. Besides, on human LPAR2, the IC50 amounted to 463 nM. For the same compound, the IC50 on human LPAR6 came out at 805 nM. Moreover, in data set [3], the “plasma unbound concentration at 24 h post-dose versus calcium mobilization IC50” value is listed as “exceeded the in vitro calcium mobilization IC50”. In data set [4], the 50% inhibitory concentration (IC50) came out at 1.5 nM. For the same compound, in [5], the “ATP content (cell viability)” value is recorded as “nor a decrease in ATP content” and the “lactate dehydrogenase leakage (cell death)” value is on record as “neither an appreciable increase in lactate dehydrogenase”. The compound further had a plasma fraction unbound in data set [6] of 0.057. In data set [7], the IC50 is 1.1 nM.

For orientation: IC50 means the concentration needed to halve the response being measured.

The values above are taken from PMC12400753 (Respiratory Research, 2025).
